Measured values published in patent US10344060B2 (priority 2013, dated 2019).
“And” between values parts separate entries of the source, which are not always exact repeats. Equal entries are not always repeated. Where two headings read alike, the source gives them in different places.

Legend:
hNav1.4 = hNav1.4 (Homo sapiens, UniProt P35499); test: cell-based; format: cell-based; conditions: for Nav1.4/Nav1.7: ratio of PX tonic IC50 values; for IC50: PatchXpress, tonic block, read-out: PX hNav1.4 Tonic IC50
hNav1.5 = hNav1.5 (Homo sapiens, UniProt Q14524); test: cell-based; conditions: for Nav1.5/Nav1.7: ratio of PX tonic IC50 values
[1] = tested on: TTX-sensitive Nav channels in mouse DRG neuron; conditions: for block of TTX-sensitive Nav current: C57 Black 6 mouse DRG neuron
hNav1.6 = hNav1.6 (Homo sapiens, UniProt Q9UQD0); test: cell-based; format: cell-based; conditions: Table 15; for Nav1.6/Nav1.7: ratio of PX tonic IC50 values; for IC50: read-out: PX hNav1.6 Tonic IC50
hNav1.7 = hNav1.7 (Homo sapiens, UniProt Q15858); test: cell-based; format: cell-based; conditions: read-out: PX hNav1.7 Tonic IC50
Chain of hNav1.7 (Q15858 whole entry): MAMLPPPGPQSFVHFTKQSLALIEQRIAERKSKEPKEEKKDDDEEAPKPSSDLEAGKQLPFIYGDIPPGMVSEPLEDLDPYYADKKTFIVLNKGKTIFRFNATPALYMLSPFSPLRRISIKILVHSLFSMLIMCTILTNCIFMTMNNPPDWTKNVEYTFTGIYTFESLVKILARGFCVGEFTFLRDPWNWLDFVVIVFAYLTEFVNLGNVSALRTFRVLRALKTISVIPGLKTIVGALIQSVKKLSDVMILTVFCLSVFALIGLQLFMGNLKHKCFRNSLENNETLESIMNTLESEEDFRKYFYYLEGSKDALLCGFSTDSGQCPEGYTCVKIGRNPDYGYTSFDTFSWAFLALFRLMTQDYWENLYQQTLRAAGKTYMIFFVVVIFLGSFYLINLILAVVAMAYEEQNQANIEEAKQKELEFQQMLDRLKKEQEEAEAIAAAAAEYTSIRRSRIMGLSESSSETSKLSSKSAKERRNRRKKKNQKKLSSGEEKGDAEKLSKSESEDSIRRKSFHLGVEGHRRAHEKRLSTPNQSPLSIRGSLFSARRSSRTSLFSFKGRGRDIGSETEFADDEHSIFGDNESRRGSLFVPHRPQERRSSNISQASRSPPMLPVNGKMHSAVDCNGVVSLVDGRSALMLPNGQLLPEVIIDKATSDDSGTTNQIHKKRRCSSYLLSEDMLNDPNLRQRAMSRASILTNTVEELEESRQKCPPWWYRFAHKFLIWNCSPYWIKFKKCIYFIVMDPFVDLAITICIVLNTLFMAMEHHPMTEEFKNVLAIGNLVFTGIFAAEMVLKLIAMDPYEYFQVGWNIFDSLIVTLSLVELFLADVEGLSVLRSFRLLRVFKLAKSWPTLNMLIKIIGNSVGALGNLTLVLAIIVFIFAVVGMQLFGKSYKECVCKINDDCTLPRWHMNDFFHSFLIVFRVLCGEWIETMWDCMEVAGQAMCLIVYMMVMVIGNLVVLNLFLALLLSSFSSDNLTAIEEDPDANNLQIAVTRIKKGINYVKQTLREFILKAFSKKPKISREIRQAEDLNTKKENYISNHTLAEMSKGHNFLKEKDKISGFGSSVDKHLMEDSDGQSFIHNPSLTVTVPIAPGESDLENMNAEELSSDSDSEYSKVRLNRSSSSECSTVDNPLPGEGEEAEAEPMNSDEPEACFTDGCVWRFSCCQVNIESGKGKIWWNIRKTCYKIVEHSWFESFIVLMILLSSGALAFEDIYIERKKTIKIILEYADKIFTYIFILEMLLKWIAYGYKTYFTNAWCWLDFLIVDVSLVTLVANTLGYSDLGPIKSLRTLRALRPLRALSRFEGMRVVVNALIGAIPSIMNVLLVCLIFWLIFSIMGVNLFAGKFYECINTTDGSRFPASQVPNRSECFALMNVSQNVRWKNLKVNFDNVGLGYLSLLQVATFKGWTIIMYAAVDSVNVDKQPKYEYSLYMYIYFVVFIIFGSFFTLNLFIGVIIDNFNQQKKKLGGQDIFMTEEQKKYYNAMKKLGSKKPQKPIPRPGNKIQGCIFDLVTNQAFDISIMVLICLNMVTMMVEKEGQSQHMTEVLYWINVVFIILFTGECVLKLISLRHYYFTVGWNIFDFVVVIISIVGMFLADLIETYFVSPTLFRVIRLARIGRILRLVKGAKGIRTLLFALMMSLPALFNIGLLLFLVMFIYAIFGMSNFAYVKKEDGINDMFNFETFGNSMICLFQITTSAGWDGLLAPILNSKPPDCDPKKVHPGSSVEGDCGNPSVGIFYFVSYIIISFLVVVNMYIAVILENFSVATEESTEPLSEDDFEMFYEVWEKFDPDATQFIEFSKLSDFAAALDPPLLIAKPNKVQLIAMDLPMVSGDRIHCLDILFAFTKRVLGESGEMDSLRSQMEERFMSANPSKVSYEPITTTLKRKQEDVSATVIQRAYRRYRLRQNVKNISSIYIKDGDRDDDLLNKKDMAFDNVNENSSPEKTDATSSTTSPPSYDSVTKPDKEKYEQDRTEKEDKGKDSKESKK

mNav1.7 = mNav1.7 (Mus musculus, UniProt Q62205); test: cell-based; conditions: for IC50: PatchXpress, tonic block, mouse Nav1.7, read-out: PX mNav1.7 Tonic IC50; for mNav1.7/hNav1.7: ratio of PX tonic IC50, mouse Nav1.7 over human Nav1.7
rNav1.7 = rNav1.7 (Rattus norvegicus, UniProt O08562); test: cell-based; conditions: for IC50: PatchXpress, tonic block, rat Nav1.7, read-out: PX rNav1.7 Tonic IC50; for rNav1.7/hNav1.7: ratio of PX tonic IC50, rat Nav1.7 over human Nav1.7
Chain of rNav1.7 (O08562 whole entry): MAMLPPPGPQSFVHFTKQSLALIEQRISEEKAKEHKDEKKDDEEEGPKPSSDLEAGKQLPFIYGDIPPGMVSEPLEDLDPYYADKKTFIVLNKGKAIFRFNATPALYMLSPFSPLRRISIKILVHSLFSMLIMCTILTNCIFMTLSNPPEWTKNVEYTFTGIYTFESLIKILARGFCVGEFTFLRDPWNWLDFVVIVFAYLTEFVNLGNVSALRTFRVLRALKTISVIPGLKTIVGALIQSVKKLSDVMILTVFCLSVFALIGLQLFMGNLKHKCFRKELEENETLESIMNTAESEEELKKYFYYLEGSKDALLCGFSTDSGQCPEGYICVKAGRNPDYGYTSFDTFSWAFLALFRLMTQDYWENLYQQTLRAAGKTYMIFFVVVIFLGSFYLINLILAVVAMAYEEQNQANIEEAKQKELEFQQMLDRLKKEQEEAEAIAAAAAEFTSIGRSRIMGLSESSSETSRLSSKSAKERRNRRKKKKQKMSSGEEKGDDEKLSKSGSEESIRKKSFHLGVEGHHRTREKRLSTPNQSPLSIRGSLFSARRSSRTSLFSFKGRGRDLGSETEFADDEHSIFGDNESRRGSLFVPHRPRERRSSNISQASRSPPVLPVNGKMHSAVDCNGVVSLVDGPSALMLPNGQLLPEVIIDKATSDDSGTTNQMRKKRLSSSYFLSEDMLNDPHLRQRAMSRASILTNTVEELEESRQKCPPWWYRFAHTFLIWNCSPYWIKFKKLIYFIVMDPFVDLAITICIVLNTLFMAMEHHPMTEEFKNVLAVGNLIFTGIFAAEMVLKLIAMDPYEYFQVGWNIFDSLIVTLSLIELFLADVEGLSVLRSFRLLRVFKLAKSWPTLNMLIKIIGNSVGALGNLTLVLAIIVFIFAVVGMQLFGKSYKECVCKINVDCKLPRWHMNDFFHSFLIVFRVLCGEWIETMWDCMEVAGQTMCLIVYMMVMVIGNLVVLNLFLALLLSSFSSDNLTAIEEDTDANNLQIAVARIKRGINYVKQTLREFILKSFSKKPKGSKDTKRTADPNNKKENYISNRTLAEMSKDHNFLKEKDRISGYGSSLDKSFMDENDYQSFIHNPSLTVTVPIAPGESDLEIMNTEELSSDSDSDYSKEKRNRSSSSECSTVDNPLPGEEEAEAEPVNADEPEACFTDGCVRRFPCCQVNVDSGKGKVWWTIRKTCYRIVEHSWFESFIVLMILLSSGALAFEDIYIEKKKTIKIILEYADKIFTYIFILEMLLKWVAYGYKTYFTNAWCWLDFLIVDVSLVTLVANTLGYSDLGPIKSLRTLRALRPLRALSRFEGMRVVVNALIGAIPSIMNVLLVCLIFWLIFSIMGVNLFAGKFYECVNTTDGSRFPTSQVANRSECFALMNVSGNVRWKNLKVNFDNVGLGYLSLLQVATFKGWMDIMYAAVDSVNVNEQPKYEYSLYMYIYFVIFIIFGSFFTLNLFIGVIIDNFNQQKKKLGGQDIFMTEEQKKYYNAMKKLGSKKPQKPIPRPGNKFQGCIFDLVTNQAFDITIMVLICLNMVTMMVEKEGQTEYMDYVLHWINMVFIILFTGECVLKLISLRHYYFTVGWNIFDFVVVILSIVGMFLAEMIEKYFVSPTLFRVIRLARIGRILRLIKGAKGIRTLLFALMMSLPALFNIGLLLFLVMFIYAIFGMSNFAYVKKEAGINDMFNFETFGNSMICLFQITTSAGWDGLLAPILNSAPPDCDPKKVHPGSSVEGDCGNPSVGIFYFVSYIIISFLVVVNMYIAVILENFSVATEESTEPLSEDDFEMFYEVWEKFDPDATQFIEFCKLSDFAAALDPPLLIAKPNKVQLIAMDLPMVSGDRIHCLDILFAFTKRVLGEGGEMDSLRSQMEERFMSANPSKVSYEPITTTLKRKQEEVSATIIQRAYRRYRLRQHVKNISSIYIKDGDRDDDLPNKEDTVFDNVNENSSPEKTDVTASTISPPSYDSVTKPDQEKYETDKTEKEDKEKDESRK

mouse Nav1.4 = mouse Nav1.4 (Mus musculus, UniProt Q9ER60); test: cell-based; conditions: PatchXpress, tonic block, mouse Nav1.4; read-out: PX mNav1.4 Tonic IC50
[2] = Table 12, PatchXpress, tonic block
[3] = PatchXpress, tonic block, human Nav1.7

Compound | IC50 [1] [nM] | IC50 (hNav1.4; Table 12) [nM] | Nav1.6/Nav1.7 (hNav1.6) | IC50 (hNav1.6) [nM] | IC50 (mNav1.7) [nM] | mNav1.7/hNav1.7 (mNav1.7) | IC50 (rNav1.7) [nM] | rNav1.7/hNav1.7 (rNav1.7) | IC50 (hNav1.7; [3]) [nM] | also measured
CCCC[C@@H]1NC(=O)[C@H](Cc2c[nH]c3ccccc23)NC(=O)[C@H](CCCCN)NC(=O)[C@H](CCC(N)=O)NC(=O)[C@@H](NC(=O)[C@H](Cc2ccc(O)cc2)NC(=O)[C@@H](N)CC#N)CSSC[C@@H]2NC(=O)[C@@H]3CSSC[C@@H](C(=O)N[C@@H](CCCNC(=N)N)C(=O)N[C@@H](CCCCN)C(=O)N[C@@H](CCC(=O)O)C(=O)N[C@H](C(N)=O)[C@@H](C)CC)NC(=O)[C@H](Cc4c[nH]c5ccccc45)NC(=O)[C@H](CC(C)C)NC(=O)[C@H](CCCCN)NC(=O)[C@H](CSSC[C@H](NC(=O)[C@H]([C@@H](C)O)NC(=O)[C@H](Cc4c[nH]c5ccccc45)NC1=O)C(=O)N[C@@H](CC(=O)O)C(=O)N[C@@H](CO)C(=O)N[C@@H](CCCCN)C(=O)N[C@@H](CCCNC(=N)N)C(=O)N[C@@H](C)C(=O)N3)NC(=O)[C@H](CCCNC(=N)N)NC(=O)[C@H](CC(C)C)NC(=O)CNC(=O)[C@H](Cc1cn(CCCOCCOCCOCCOCCOCCOCCOCCOCCOCCOCCN)nn1)NC2=O [compound 443] | 35.2 |  |  |  |  |  |  |  |  | Nav1.4/Nav1.7 (hNav1.4; Table 13): 31; Nav1.5/Nav1.7 (hNav1.5; Table 13): 236; block of TTX-sensitive Nav current ([1]; 300 nM): over 75%
C#CC[C@H](N)C(=O)N[C@@H](Cc1ccc(O)cc1)C(=O)N[C@H]1CSSC[C@@H]2NC(=O)[C@@H]3CSSC[C@@H](C(=O)N[C@@H](CCCNC(=N)N)C(=O)N[C@@H](CCCCN)C(=O)N[C@@H](CCC(=O)O)C(=O)N[C@H](C(N)=O)[C@@H](C)CC)NC(=O)[C@H](Cc4c[nH]c5ccccc45)NC(=O)[C@H](CC(C)C)NC(=O)[C@H](CCCCN)NC(=O)[C@H](CSSC[C@H](NC(=O)[C@H]([C@@H](C)O)NC(=O)[C@H](Cc4c[nH]c5ccccc45)NC(=O)[C@H](CCCC)NC(=O)[C@H](Cc4c[nH]c5ccccc45)NC(=O)[C@H](CCCCN)NC(=O)[C@H](CCC(N)=O)NC1=O)C(=O)N[C@@H](CC(=O)O)C(=O)N[C@@H](CO)C(=O)N[C@@H](CCCCN)C(=O)N[C@@H](CCCNC(=N)N)C(=O)N[C@@H](CCC(=O)O)C(=O)N3)NC(=O)[C@H](CCCNC(=N)N)NC(=O)[C@H](CC(C)C)NC(=O)CNC(=O)[C@H](CCC(=O)O)NC2=O [compound 717] | 99.8 | 325 | 2558 | 2490 |  |  |  |  |  | Nav1.4/Nav1.7 (hNav1.4; Table 12): 333; block of TTX-sensitive Nav current ([1]; 1000 nM): approximately 90%; IC50 (hNav1.7; [2]): 0.975 nM
C#CC[C@H](N)C(=O)N[C@@H](Cc1ccc(O)cc1)C(=O)N[C@H]1CSSC[C@@H]2NC(=O)[C@@H]3CSSC[C@@H](C(=O)N[C@@H](CCCNC(=N)N)C(=O)N[C@@H](CCCCN)C(=O)N[C@@H](CCC(=O)O)C(=O)N[C@H](C(N)=O)[C@@H](C)CC)NC(=O)[C@H](Cc4c[nH]c5ccccc45)NC(=O)[C@H](CC(C)C)NC(=O)[C@H](CCCCN)NC(=O)[C@H](CSSC[C@H](NC(=O)[C@H]([C@@H](C)O)NC(=O)[C@H](Cc4c[nH]c5ccccc45)NC(=O)[C@H](CCCC)NC(=O)[C@H](Cc4c[nH]c5ccccc45)NC(=O)[C@H](CCCCN)NC(=O)[C@H](CCC(N)=O)NC1=O)C(=O)N[C@@H](CC(=O)O)C(=O)N[C@@H](CO)C(=O)N[C@@H](CCC(=O)O)C(=O)N[C@@H](CCCNC(=N)N)C(=O)N[C@@H](C)C(=O)N3)NC(=O)[C@H](CCCNC(=N)N)NC(=O)[C@H](CC(C)C)NC(=O)CNC(=O)[C@H](CCC(=O)O)NC2=O [compound 715] | 144 | 811 | 508 | 877 |  |  |  |  |  | Nav1.4/Nav1.7 (hNav1.4; Table 12): 470; IC50 (hNav1.5; Table 12, PatchXpress, tonic block, read-out: PX hNav1.5 Tonic IC50): > 10000 nM; Nav1.5/Nav1.7 (hNav1.5; Table 12): >5794; block of TTX-sensitive Nav current ([1]; 1000 nM): approximately 90%; IC50 (hNav1.7; [2]): 1.73 nM
C#CC[C@H](N)C(=O)NCCCC[C@@H]1NC(=O)[C@H](CCCNC(=N)N)NC(=O)[C@H](CCCCN)NC(=O)[C@H](CO)NC(=O)[C@H](CC(=O)O)NC(=O)[C@@H]2CSSC[C@@H]3NC(=O)[C@H](CCCNC(=N)N)NC(=O)[C@H](CC(C)C)NC(=O)CNC(=O)[C@H](CCC(=O)O)NC(=O)[C@H](CSSC[C@H](NC(=O)[C@H](Cc4ccc(O)cc4)NC(=O)[C@@H](N)CC#N)C(=O)N[C@@H](CCC(N)=O)C(=O)N[C@@H](CCCCN)C(=O)N[C@@H](Cc4c[nH]c5ccccc45)C(=O)N[C@@H](CCCC)C(=O)N[C@@H](Cc4c[nH]c5ccccc45)C(=O)N[C@@H]([C@@H](C)O)C(=O)N2)NC(=O)[C@H](CSSC[C@@H](C(=O)N[C@@H](CCCNC(=N)N)C(=O)N[C@@H](CCCCN)C(=O)N[C@@H](CCC(=O)O)C(=O)N[C@H](C(N)=O)[C@@H](C)CC)NC(=O)[C@H](Cc2c[nH]c4ccccc24)NC(=O)[C@H](CC(C)C)NC(=O)[C@H](CCCCN)NC3=O)NC1=O [compound 392] | 46.6 | 110 | 157 | 250 |  |  |  |  |  | Nav1.5/Nav1.7 (hNav1.5; Table 12): 659 and 615 and 841; fold less potent than JzTx-V in inhibition of TTX-sensitive current [1]: about 3 fold; IC50 (hNav1.7; Table 15): 1.59 nM
C#CC[C@@H]1NC(=O)[C@H](CC(=O)O)NC(=O)[C@@H]2CSSC[C@@H]3NC(=O)[C@H](CCCNC(=N)N)NC(=O)[C@H](CC(C)C)NC(=O)CNC(=O)[C@H](CCC(=O)O)NC(=O)[C@H](CSSC[C@H](NC(=O)[C@@H](N)Cc4ccc(O)cc4)C(=O)N[C@@H](CCC(N)=O)C(=O)N[C@@H](CCCCN)C(=O)N[C@@H](Cc4c[nH]c5ccccc45)C(=O)N[C@@H](CCCC)C(=O)N[C@@H](Cc4c[nH]c5ccccc45)C(=O)N[C@@H]([C@@H](C)O)C(=O)N2)NC(=O)[C@H](CSSC[C@@H](C(=O)N[C@@H](CCCNC(=N)N)C(=O)N[C@@H](CCCCN)C(=O)N[C@@H](CCC(=O)O)C(=O)N[C@H](C(N)=O)[C@@H](C)CC)NC(=O)[C@H](Cc2c[nH]c4ccccc24)NC(=O)[C@H](CC(C)C)NC(=O)[C@H](CCCCN)NC3=O)NC(=O)[C@H](C)NC(=O)[C@H](CCCNC(=N)N)NC(=O)[C@H](CCCCN)NC1=O [[Nle6; Pra11; Glu28]JzTx-V(1-29)] |  |  |  |  | 3.69 | 7.81 | 3.83 | 8.10 | 0.473 | 
C#CC[C@H](N)C(=O)N[C@@H](Cc1ccc(O)cc1)C(=O)N[C@H]1CSSC[C@@H]2NC(=O)[C@@H]3CSSC[C@@H](C(=O)N[C@@H](CCCNC(=N)N)C(=O)N[C@@H](CCCCN)C(=O)N[C@@H](CCC(=O)O)C(=O)N[C@@H](Cc4c[nH]c5ccccc45)C(N)=O)NC(=O)[C@H](Cc4c[nH]c5ccccc45)NC(=O)[C@H](CC(C)C)NC(=O)[C@H](CCCCN)NC(=O)[C@H](CSSC[C@H](NC(=O)[C@H]([C@@H](C)O)NC(=O)[C@H](Cc4c[nH]c5ccccc45)NC(=O)[C@H](CCCC)NC(=O)[C@H](Cc4c[nH]c5ccccc45)NC(=O)[C@H](CCCCN)NC(=O)[C@H](CCC(N)=O)NC1=O)C(=O)N[C@@H](CC(=O)O)C(=O)N[C@@H](CO)C(=O)N[C@@H](CCCCN)C(=O)N[C@@H](CCCNC(=N)N)C(=O)N[C@@H](C)C(=O)N3)NC(=O)[C@H](CCCNC(=N)N)NC(=O)[C@H](CC(C)C)NC(=O)CNC(=O)[C@H](CCC(=O)O)NC2=O [Pra-[Nle6; Glu28; Trp29]JzTx-V(1-29)] |  |  |  |  | 3.11 | 8.82 | 0.097 | 0.27 | 0.352 | 
C#CC[C@@H]1NC(=O)[C@H](CC(=O)O)NC(=O)[C@@H]2CSSC[C@@H]3NC(=O)[C@H](CCCNC(=N)N)NC(=O)[C@H](CC(C)C)NC(=O)CNC(=O)[C@H](CCC(=O)O)NC(=O)[C@H](CSSC[C@H](NC(=O)[C@H](Cc4ccc(O)cc4)NC(=O)[C@@H](N)CC#N)C(=O)N[C@@H](CCC(N)=O)C(=O)N[C@@H](CCCCN)C(=O)N[C@@H](Cc4c[nH]c5ccccc45)C(=O)N[C@@H](CCCC)C(=O)N[C@@H](Cc4c[nH]c5ccccc45)C(=O)N[C@@H]([C@@H](C)O)C(=O)N2)NC(=O)[C@H](CSSC[C@@H](C(=O)N[C@@H](CCCNC(=N)N)C(=O)N[C@@H](CCCCN)C(=O)N[C@@H](CCC(=O)O)C(=O)N[C@H](C(N)=O)[C@@H](C)CC)NC(=O)[C@H](Cc2c[nH]c4ccccc24)NC(=O)[C@H](CC(C)C)NC(=O)[C@H](CCCCN)NC3=O)NC(=O)[C@H](C)NC(=O)[C@H](CCCNC(=N)N)NC(=O)[C@H](CCCCN)NC1=O [CyA-[Nle6; Pra11; Glu28]JzTx-V(1-29)] |  |  |  |  | 4.04 | 20.87 | 2.24 | 11.58 |  | 
CCCC[C@@H]1NC(=O)[C@H](Cc2c[nH]c3ccccc23)NC(=O)[C@H](CCCCN)NC(=O)[C@H](CCC(N)=O)NC(=O)[C@@H](NC(=O)[C@H](Cc2ccc(O)cc2)NC(=O)[C@@H](N)CCC)CSSC[C@@H]2NC(=O)[C@@H]3CSSC[C@@H](C(=O)N[C@@H](CCCNC(=N)N)C(=O)N[C@@H](CCCCN)C(=O)N[C@H](C(=O)N[C@H](C(N)=O)[C@@H](C)CC)[C@@H](C)CC)NC(=O)[C@H](Cc4c[nH]c5ccccc45)NC(=O)[C@H](CC(C)C)NC(=O)[C@H](CCCCN)NC(=O)[C@H](CSSC[C@H](NC(=O)[C@H]([C@@H](C)O)NC(=O)[C@H](Cc4c[nH]c5ccccc45)NC1=O)C(=O)N[C@@H](CC(=O)O)C(=O)N[C@@H](CO)C(=O)N[C@@H](CCCCN)C(=O)N[C@@H](CCCNC(=N)N)C(=O)N[C@@H](C)C(=O)N3)NC(=O)[C@H](CCCNC(=N)N)NC(=O)[C@H](CC(C)C)NC(=O)CNC(=O)[C@H](CCC(=O)O)NC2=O [Nva-[Nle6]JzTx-V(1-29)] |  |  |  |  |  |  |  |  | 0.82 | IC50 (mouse Nav1.4): 4.54 nM
